# Laboratory results taken from patent publication US12440568B2 (priority 2010, dated 2025).
# Legend:
# [1] = Company studies of solubility and sustained release
# [2] = tested on: Cell lines of human bladder cancer; test: MTT viability assay, MMC in DTC-2 versus MMC in saline; format: cell-based; settings: cell lines exposed to MMC
# Description: An in-vitro study was performed to evaluate the efficacy of DTCx materials as cytotoxic agents in the urinary bladder. […] Viability was assessed by MTT assay which tests mitochondrial function.
# Cell lines of human bladder cancer were grown in RPMI 1640 medium, supplemented with FBS, 100 U/ml penicillin and […] streptomycin. […] After 2 hours of incubation, medium was replaced with fresh medium for all plates.
# The plates were tested by taking out the medium and adding fresh medium containing MTT reagent. All other plates were returned to the incubator for incubation of 24, 72, 120 and 144 h. MTT assays were used to assess toxicity at all time points. The proportion of living cells was calculated by comparison to the control vehicle.
# A microplate reader (EL 312e: Bio-Tek Instruments, Winooski VT) was used to evaluate the presence of […] as a color development measured by absorbance spectroscopy at 450 nm. Background optical density (OD) was subtracted from the OD readings of all samples. Cell viability was calculated by dividing the mean OD absorbance values of the treated wells by the mean OD absorbance of the control wells. All samples were tested in triplicate.
# Reference is now made to FIGS. 3A-3D, which show graphs of cell viability as a function of time for various experiments.
# [3] = tested on: TCC cell cultures and human bladder tumor tissue cultures; settings: cited from earlier work
Compound,Solubility and release behaviour in the invented platform [1],Higher cell kill with 10× longer exposure time or 10× higher concentration [2],Concentration needed for similar cell kill effect when exposure reduced from 24 hours to two hours [3]
Abamectin,solubility and first order sustained release,,
COc1cccc2c1C(=O)c1c(O)c3c(c(O)c1C2=O)C[C@@](O)(C(=O)CO)C[C@@H]3O[C@H]1C[C@H](N)[C@H](O)[C@H](C)O1 [Doxorubicin],solubility and first order sustained release,,
Nc1ccn([C@@H]2O[C@H](CO)[C@@H](O)C2(F)F)c(=O)n1 [Gemcitabin],solubility and first order sustained release,,
"CO[C@@]12[C@H](COC(N)=O)C3=C(C(=O)C(C)=C(N)C3=O)N1C[C@@H]1N[C@@H]12 [MMC, Mitomycin C]",,up to 30 ×,ten times higher concentration
O=C(O)Cc1ccccc1Nc1c(Cl)cccc1Cl [voltaren],solubility and first order sustained release,,
